A short description of series [1]: well-based DEL assay (MTS colorimetric, 96/384-well): genotoxicity and cytotoxicity. The conditions noted are these: Saccharomyces cerevisiae; for viability: Cytotoxicity (% survival). The source says:
(§1) The RS112 yeast DEL assay tester strain of Saccharomyces cerevisiae contains a plasmid with an internal fragment of the HIS3 gene integrated at the genomic HIS3 locus, yielding an integrative disruption of the HIS3 gene. This disruption results in two copies of the HIS3 gene, each copy having one terminal deletion. Recombination between the two his3 deletion alleles results in reversion to HIS3^+ and growth in the absence of histidine. This recombination event leads to a 6 kb DNA deletion comprising the integrated plasmid leading to deletion (DEL) events. The assay utilizing DEL events involves overnight growth of a single colony of the RS112 strain and subsequent subculture with the presence or absence of the chemical being tested for 17 hours at 30° C. under constant shaking. Yeast are then plated onto SC medium to determine the number of survivors (individual colonies are counted) and onto SC-HIS medium to score for DEL events. The traditional DEL assay is very powerful if one is testing a limited number of chemicals but becomes impractical for screening large numbers of chemicals and chemical libraries.
(§2) For 384-well plate format, 1 μl of yeast (˜100,000 cells) was pipetted into 8 microplate wells for each compound, four of which containing 70 μl SC media and four containing 70 μl SC-HIS media; each well was supplemented with 14 μl of MTS and 5 μl of compound. For 96-well plate format, the above was consistent except media, MTS, and compound volumes were 100 μl, 20 μl, and 7 μl, respectively. Control wells were treated with water in lieu of compound. The outermost columns of the 96-well plate and outer two columns of each 384-well plate were excluded from experimentation lest edge evaporative effects alter the data. Plates were incubated at 30° C. at normal atmosphere during which yeast were grown in the presence of the tested compound and 490 nm absorbance was measured 10-18 hr later using a Molecular Devices SpectraMax M5 microplate reader (Sunnyvale, Calif.).
(§3) Survival for a given compound treatment was quantified by averaging the absorbance across the four treated wells in SC media and dividing that by the average absorbance of control wells. DEL induction was quantified by dividing the absorbance of each SC-HIS well by the corresponding paired SC well. Thus for each compound done in quadruplicate, each plate contains a set of 4 different measurements of DEL induction. For each compound, ratio of the average DEL induction in treated versus control cultures was taken as the fold-increase in DEL events (HIS^+ growth). A Student's t-test was performed on the 4 measurements of DEL induction and the same measurements recorded from control wells to determine significance of the fold-increase. It should be noted that this value of fold-increase is analyzed statistically for significance and not absolute; thus two different chemicals may have the same fold-increase but varying levels of significance. In plots and tables, data from a single experiment performed in quadruplicate is presented; all experiments were repeated independently in at least 3 separate experiments in both 96 and 384-well plate formats.

Series [2] deals with S. cerevisiae strain RS112. The description is as above. The conditions noted are these: for DNA deletion potential (DEL events) of solvent alone: compared to control treated yeast.
Source text: as §1, §2, §3

The mark [3] stands for this setting: S. cerevisiae strain RS112 (diploid yeast cells).
[4] abbreviates: concentrations as low as 1 μM (~0.3 μg/ml).

Read-outs that look alike come from different tables or passages of the source. Numbered stars: 1 amine (or outer) side, 2 acyl side, 3 side chain; on linkers, the order of the positions; unused ones are H or OH. Bridge positions count the residues as written; N and C are the ends. Square brackets hold non-standard residues; d marks the D form. Peptide text beside a SMILES is read from it. I, II: the chains in the order shown. Actinocin(9to1) = Cc1c2oc3c(C)ccc(C(=O)[*:1])c3nc-2c(C(=O)[*:2])c(N)c1=O; NMeV = CN[C@H](C(=O)O)C(C)C; Sar = CNCC(=O)O

Consider `CC[C@@]1(O)C(=O)OCc2c1cc1n(c2=O)Cc2cc3ccccc3nc2-1` [Camptothecin, camptothecin], for which, in series [1] (setting [3]), the viability (as a rule, a read-out of living cells in per cent, often relative to untreated cells) at 5 μM was determined as 86.1%; the viability at 15 μM is 93.1%; the viability at 25 μM came out at 95.7%; the viability at 40 μM was found to be 85.6%. For the same compound, in series [2] (5 μM final in well), the Cytotoxicity significance result is recorded as “*** (*** (p < 0.005))”, the “DEL (fold increase)” value is 1.28 fold and the DEL significance entry is listed as “** (** (p < 0.01))”. In series [2] (15 μM final in well), the Cytotoxicity significance result is “* (* (p < 0.05))”, the “DEL (fold increase)” value came out at 1.53 fold and the DEL significance entry is “*** (*** (p < 0.005))”. In series [2] (25 μM final in well), the Cytotoxicity significance entry is “* (* (p < 0.05))”, the “DEL (fold increase)” value stood at 1.57 fold and the DEL significance result is recorded as “*** (*** (p < 0.005))”. Also, in series [2] (40 μM final in well), the Cytotoxicity significance result was “*** (*** (p < 0.005))”, the “DEL (fold increase)” value is reported as 1.77 fold and the DEL significance result is reported as “*** (*** (p < 0.005))”. Besides, the cytotoxicity result in series [2] (each concentration 5-40 μM) is listed as “various degrees of cytotoxicity”. Moreover, the “genotoxicity (growth in −HIS media)” value in series [2] (each concentration 5-40 μM (1.7-13.9 μg/ml)) was “significant genotoxicity”.

For `O=P1(N(CCCl)CCCl)NCCCO1` (stereo not shown) [Cyclophosphamide, cyclophosphamide monohydrate], in series [1], the viability at 50 μM is 109%, the viability at 100 μM came out at 104% and the viability at 200 μM is 96.2%. Also, in series [2] (50 μM final in well), the “DEL (fold increase)” value stood at 0.77 fold and the DEL significance entry is given as “ns (ns—not significant (p > 0.05))”. In addition, in series [2] (100 μM final in well), the “DEL (fold increase)” value was determined as 0.74 fold and the DEL significance result is “ns (ns—not significant (p > 0.05))”. Further, in series [2] (200 μM final in well), the Cytotoxicity significance entry is “ns (ns—not significant (p > 0.05))”, the “DEL (fold increase)” value is given as 0.95 fold and the DEL significance result was “ns (ns—not significant (p > 0.05))”. Moreover, the DEL fold-increase entry in series [2] (up to 200 μM) is “no DEL fold-increase”.

Regarding `COS(C)(=O)=O` [MMS, methylmethane sulfonate], in series [1] (setting [3]), the viability at 10 nM amounted to 81.2%, the viability at 100 nM was found to be 74.8%, the viability at 500 nM is 38.6% and the viability at 1000 nM is 20.3%. In series [2] (10 nM final in well), the Cytotoxicity significance entry was “*** (*** (p < 0.005))”, the “DEL (fold increase)” value was determined as 1.54 fold and the DEL significance entry is given as “** (** (p < 0.01))”. In series [2] (100 nM final in well), the Cytotoxicity significance result is reported as “*** (*** (p < 0.005))”, the “DEL (fold increase)” value was found to be 1.68 fold and the DEL significance result was “*** (*** (p < 0.005))”. In series [2] (500 nM final in well), the Cytotoxicity significance result is on record as “*** (*** (p < 0.005))”, the “DEL (fold increase)” value is reported as 2.16 fold and the DEL significance entry was “*** (*** (p < 0.005))”. Also, in series [2] (1000 nM final in well), the Cytotoxicity significance result is listed as “*** (*** (p < 0.005))”, the “DEL (fold increase)” value was determined as 3.09 fold and the DEL significance result is “*** (*** (p < 0.005))”. Also, the cytotoxicity entry in series [2] (each concentration between 10-1000 nM) is listed as “increasingly significantly cytotoxic”. Besides, in series [2] (lowest dose tested of 10 nM (0.0011 μg/ml)), the DEL fold-increase entry is listed as “significant increase in DEL fold-increase”.

As to `CC(C)=O` [Acetone, acetone], in series [2] (0.4% (solvent tested alone)), the “DEL (fold increase)” value came to 0.96 fold and the DEL significance result is “ns (ns—not significant (p > 0.05))”. Further, the “DNA deletion potential (DEL events) of solvent alone” value in series [2] is “neither solvents generated any differentiable response”.

`CCOS(C)(=O)=O` [EMS, ethyl methanesulfonate]: in series [1] (setting [3]), the viability at 2 μg/ml stood at 38.2%, the viability at 5 μg/ml was 8.36% and the viability at 10 μg/ml amounted to 6.7%. Further, in series [2] (2 μg/ml final in well), the Cytotoxicity significance result was “*** (*** (p < 0.005))”, the “DEL (fold increase)” value stood at 1.59 fold and the DEL significance entry is “*** (*** (p < 0.005))”. In addition, in series [2] (5 μg/ml final in well), the Cytotoxicity significance entry is reported as “*** (*** (p < 0.005))”, the “DEL (fold increase)” value stood at 3.19 fold and the DEL significance entry was “*** (*** (p < 0.005))”. For the same compound, in series [2] (10 μg/ml final in well), the Cytotoxicity significance entry is listed as “*** (*** (p < 0.005))”, the “DEL (fold increase)” value is 2.65 fold and the DEL significance entry was “*** (*** (p < 0.005))”. In addition, in series [2] (2, 5 and 10 μg/ml), the “growth in +13 media (cytotoxicity)” value is recorded as “diminished growth in +13 media” and the “growth in −HIS media (genotoxicity)” value is “increased growth in −HIS media”.

As to `Cc1c2oc3c(C)ccc(C(=O)N[C@@H]4C(=O)N[C@H](C(C)C)C(=O)N5CCC[C@H]5C(=O)N(C)CC(=O)N(C)[C@@H](C(C)C)C(=O)O[C@@H]4C)c3nc-2c(C(=O)N[C@@H]2C(=O)N[C@H](C(C)C)C(=O)N3CCC[C@H]3C(=O)N(C)CC(=O)N(C)[C@@H](C(C)C)C(=O)O[C@@H]2C)c(N)c1=O` [ActD, actinomycin D] (I: T[dV]P[Sar][NMeV] / II: T[dV]P[Sar][NMeV]; ester I:1-I:C, II:1-II:C; linker I:N-II:N via Actinocin(9to1)), in series [2], the Cytotoxicity significance entry is given as “** (key: * (p < 0.05); ** (p < 0.01); *** (p < 0.005); ns—not significant (p > 0.05))”, the DEL fold-increase result is listed as “significant DEL fold-increase” and the cytotoxicity entry is given as “slight cytotoxicity”. In addition, in series [2] (5 μM final in well), the “Cytotoxicity (% survival)” value was found to be 112.0%, the “DEL (fold increase)” value came to 0.89 fold and the DEL significance entry is recorded as “ns (ns—not significant (p > 0.05))”. In addition, in series [2] (10 μM final in well), the “Cytotoxicity (% survival)” value came to 110.2%, the “DEL (fold increase)” value is reported as 0.96 fold and the DEL significance result is recorded as “ns (ns—not significant (p > 0.05))”. For the same compound, in series [2] (20 μM final in well), the “Cytotoxicity (% survival)” value is listed as 86.3%, the “DEL (fold increase)” value is 1.26 fold and the DEL significance result is on record as “** (** (p < 0.01))”.

On to `O=C(O)CCCc1ccc(N(CCCl)CCCl)cc1` [Chlorambucil, chlorambucil], for which, in series [1], the viability at 1 μM amounted to 82.4%, the viability at 10 μM is 35.7% and the viability at 30 μM was found to be 20.5%. Moreover, in series [2] (1 μM final in well), the Cytotoxicity significance result is reported as “** (** (p < 0.01))”, the “DEL (fold increase)” value was 1.18 fold and the DEL significance result was “* (* (p < 0.05))”. In series [2] (10 μM final in well), the Cytotoxicity significance result is “*** (*** (p < 0.005))”, the “DEL (fold increase)” value stood at 2.37 fold and the DEL significance result is listed as “*** (*** (p < 0.005))”. Moreover, in series [2] (30 μM final in well), the Cytotoxicity significance entry is listed as “*** (*** (p < 0.005))”, the “DEL (fold increase)” value came to 3.58 fold and the DEL significance result is “*** (*** (p < 0.005))”. In series [2] (setting [4]), the cytotoxicity entry was “significant genotoxicity and cytotoxicity”; the genotoxicity entry is “significant genotoxicity and cytotoxicity”. For the same compound, the “DEL events (DNA deletions) induced by crosslinking agents” value in series [2] (well-based DEL assay) was “significant increase in DEL events”.

Regarding `C[S+](C)[O-]` [DMSO, dimethyl sulfoxide], in series [2] (1% (solvent tested alone)), the “DEL (fold increase)” value was determined as 0.96 fold and the DEL significance entry is “ns (ns—not significant (p > 0.05))”. The “DNA deletion potential (DEL events) of solvent alone” value in series [2] is on record as “neither solvents generated any differentiable response”.

As for `O=[N+]([O-])c1cc[n+]([O-])c2ccccc12` [4NQO, 4-nitroquinoline-1-oxide], the viability in series [1] (0.08 μg/ml final in well) worked out at 20.3%; in series [1] (0.2 μg/ml final in well), 11.7%; in series [1] (1 μg/ml final in well), 13.5%.

The values are drawn from US9193983B2, “Assays for mutagenesis detection” (The Regents of the University of California, priority 2007, dated 2015).
